Laboratory results: patent US11439709B2, “Phospholipid ether analogs as cancer-targeting drug vehicles” (Cellectar Biosciences, Inc., priority 2014, dated 2022)
pIC50: −log10 of the molar value.

Key:
MDA-MB-468 cells = assay: Annexin V / PI flow cytometry, MDA-MB-468 cells
Experimental: (§1) Annexin V and PI ([…]) staining by flow cytometry was utilized to determine percentages of live, early apoptotic, late apoptotic, and necrotic cells. In short, cells were treated with cytotoxic agents and stained with an Annexin V/P1 labeling kit (Life Technologies). Cells were analyzed on an LSRII flow cytometer (BD Biosciences). As shown in Tables 3-9, cells were classified as: Live (Annexin V negative, PI negative), Early apoptotic (Annexin V positive, PI negative), Late apoptotic (Annexin V positive, PI positive), and Necrotic. (Annexin V negative, PI positive). […] Annexin V (attached to AlexaFluor 488) is shown on the x-axis, while PI is shown on the y-axis. The lower left quadrant indicates live cells, the upper left quadrant indicates necrotic cells, the upper right quadrant indicates late apoptotic cells and the lower right quadrant indicates early apoptotic cells. Debris was eliminated from this analysis.

MiaPaCa-1 (Pancreas) = assay: cells; format: cell-based; conditions: cell viability
Experimental: (§2) The cell lines were then measured for cell viability and reported as IC50 for each treatment.

HCT116 (Colorectal) = assay: cells; format: cell-based
Experimental: as §2

NCI-H1299 (Lung) = assay: cells; format: cell-based; conditions: NCI-HI1299 (Lung), cell viability
Experimental: as §2

MDA-MB-468 (Breast) = assay: cells; format: cell-based; conditions: cell viability
Experimental: as §2

NCI-H460 (Lung) = assay: cells; format: cell-based; conditions: cell viability
Experimental: as §2

Capan-2 (Pancreas) = assay: cells; format: cell-based; conditions: cell viability
Experimental: as §2

HT29 (Colorectal) = assay: cells; format: cell-based
Experimental: as §2

PC-3 (Prostate) = assay: cells; format: cell-based; conditions: cell viability
Experimental: as §2

[1] = test system: MDA-MB-468, NCI-H1299, NCI-H460, Capan-2, MiaPaCa-1, HT29, HCT116 and PC-3 cancer cell lines; assay: Cell viability of the cancer cell line panel (result in words); format: cell-based; conditions: eight cancer cell lines, serial concentrations
Experimental: as §2

PANC-1 cells = assay: Annexin V / PI flow cytometry, PANC-1 cells; format: cell-based; conditions: GEL for 48 hours
Experimental: as §1

COLO 829 cells = assay: Annexin V / PI flow cytometry, COLO 829 cells; format: cell-based
Experimental: as §1

22RV1 cells = assay: Annexin V / PI flow cytometry, 22RV1 cells; format: cell-based; conditions: GEL for 48 hours
Experimental: as §1

[2] = 1 uM, GEL for 48 hours, Table 4 titled 72 Hours
[3] = 100 nM, GEL for 48 hours, Table 5
[4] = 1 uM, GEL for 48 hours, Table 5
[5] = 100 nM, PTX for 24 hours, Table 3 titled 72 Hours
[6] = 1 uM, PTX for 24 hours, Table 3 titled 72 Hours

CC(=O)O[C@H]1C(=O)[C@@]2(C)[C@H]([C@H](OC(=O)c3ccccc3)[C@]3(O)C[C@H](OC(=O)[C@H](OC(=O)CCCC(=O)Nc4ccc(CCCCCCCCCCCCCCCCCCOP(=O)([O-])OCC[N+](C)(C)C)cc4)[C@@H](NC(=O)c4ccccc4)c4ccccc4)C(C)=C1C3(C)C)[C@]1(OC(C)=O)CO[C@@H]1C[C@@H]2O [CLR1601]
Early Apoptotic (MDA-MB-468 cells; 1 uM, 48 hrs (Table 8)): 1.49 % of total cells
Late Apoptotic (MDA-MB-468 cells; 1 uM, 48 hrs (Table 8)): 6 % of total cells
Live (cell viability) (MDA-MB-468 cells; 1 uM, 48 hrs (Table 8)): 79.4 % of total cells
Necrotic (MDA-MB-468 cells; 1 uM, 48 hrs (Table 8)): 13.1 % of total cells
Early Apoptotic (MDA-MB-468 cells; 1 uM, 72 hrs): 9.8 % of total cells
Late Apoptotic (MDA-MB-468 cells; 1 uM, 72 hrs): 57.5 % of total cells
Live (cell viability) (MDA-MB-468 cells; 1 uM, 72 hrs): 17 % of total cells
Necrotic (MDA-MB-468 cells; 1 uM, 72 hrs): 15.8 % of total cells
Early Apoptotic (MDA-MB-468 cells; 5 uM, 72 hrs): 2.71 % of total cells
Late Apoptotic (MDA-MB-468 cells; 5 uM, 72 hrs): 57.9 % of total cells
Live (cell viability) (MDA-MB-468 cells; 5 uM, 72 hrs): 17.8 % of total cells
Necrotic (MDA-MB-468 cells; 5 uM, 72 hrs): 21.6 % of total cells
pIC50 (MiaPaCa-1 (Pancreas)): 7.43
pIC50 (HCT116 (Colorectal); cell viability): 8.12
pIC50 (NCI-H1299 (Lung)): 7.22
pIC50 (MDA-MB-468 (Breast)): 8.42
pIC50 (NCI-H460 (Lung)): 7.53
pIC50 (Capan-2 (Pancreas)): 7.25
pIC50 (HT29 (Colorectal); cell viability): 7.04
pIC50 (PC-3 (Prostate)): 7.46
reduction of cancer cell line viability [1]: capable of reducing cell viability

CC(=O)O[C@H]1C(=O)[C@]2(C)[C@@H](OC(=O)NCCCC(=O)Nc3ccc(CCCCCCCCCCCCCCCCCCOP(=O)([O-])OCC[N+](C)(C)C)cc3)C[C@H]3OC[C@@]3(OC(C)=O)[C@H]2[C@H](OC(=O)c2ccccc2)[C@]2(O)C[C@H](OC(=O)[C@H](O)[C@@H](NC(=O)c3ccccc3)c3ccccc3)C(C)=C1C2(C)C [CLR1602]
reduction of cancer cell line viability [1]: not capable of significantly reducing cancer cell line viability

CC(=O)O[C@H]1C(=O)[C@@]2(C)[C@H]([C@H](OC(=O)c3ccccc3)[C@]3(O)C[C@H](OC(=O)[C@H](OC(=O)OCCCCC(=O)Nc4ccc(CCCCCCCCCCCCCCCCCCOP(=O)([O-])OCC[N+](C)(C)C)cc4)[C@@H](NC(=O)c4ccccc4)c4ccccc4)C(C)=C1C3(C)C)[C@]1(OC(C)=O)CO[C@@H]1C[C@@H]2O [CLR1603]
Early Apoptotic (MDA-MB-468 cells; 1 uM, 48 hrs (Table 8)): 1.4 % of total cells
Late Apoptotic (MDA-MB-468 cells; 1 uM, 48 hrs (Table 8)): 4.78 % of total cells
Live (cell viability) (MDA-MB-468 cells; 1 uM, 48 hrs (Table 8)): 81.4 % of total cells
Necrotic (MDA-MB-468 cells; 1 uM, 48 hrs (Table 8)): 12.4 % of total cells
Early Apoptotic (MDA-MB-468 cells; 1 uM, 72 hrs): 6.74 % of total cells
Late Apoptotic (MDA-MB-468 cells; 1 uM, 72 hrs): 49.1 % of total cells
Live (cell viability) (MDA-MB-468 cells; 1 uM, 72 hrs): 22.2 % of total cells
Necrotic (MDA-MB-468 cells; 1 uM, 72 hrs): 22 % of total cells
Early Apoptotic (MDA-MB-468 cells; 5 uM, 72 hrs): 2.65 % of total cells
Late Apoptotic (MDA-MB-468 cells; 5 uM, 72 hrs): 55.2 % of total cells
Live (cell viability) (MDA-MB-468 cells; 5 uM, 72 hrs): 19.7 % of total cells
Necrotic (MDA-MB-468 cells; 5 uM, 72 hrs): 22.5 % of total cells
reduction of cancer cell line viability [1]: capable of reducing cell viability

COC1=C2C[C@@H](C)C[C@H](OC)[C@H](O)[C@@H](C)/C=C(\C)[C@H](OC(N)=O)[C@@H](OC)/C=C\C=C(/C)C(=O)NC(=CC1=O)C2=O [GEL, geldanamycin]
Early Apoptotic (PANC-1 cells; 100 nM): 4.68 % of total cells
Late Apoptotic (PANC-1 cells; 100 nM): 12.6 % of total cells
Live (cell viability) (PANC-1 cells; 100 nM): 23.3 % of total cells
Necrotic (PANC-1 cells; 100 nM): 59.4 % of total cells
Early Apoptotic (PANC-1 cells; 1 uM): 1.93 % of total cells
Late Apoptotic (PANC-1 cells; 1 uM): 12.8 % of total cells
Live (cell viability) (PANC-1 cells; 1 uM): 18.9 % of total cells
Necrotic (PANC-1 cells; 1 uM): 66.4 % of total cells
Early Apoptotic (MDA-MB-468 cells; [2]): 19.6 % of total cells
Late Apoptotic (MDA-MB-468 cells; [2]): 37.9 % of total cells
Live (cell viability) (MDA-MB-468 cells; [2]): 26.2 % of total cells
Necrotic (MDA-MB-468 cells; [2]): 16.3 % of total cells
Early Apoptotic (COLO 829 cells; 100 nM, 48 hrs (Table 9)): 12.2 % of total cells
Late Apoptotic (COLO 829 cells; 100 nM, 48 hrs (Table 9)): 29 % of total cells
Live (cell viability) (COLO 829 cells; 100 nM, 48 hrs (Table 9)): 36.1 % of total cells
Necrotic (COLO 829 cells; 100 nM, 48 hrs (Table 9)): 22.7 % of total cells
Early Apoptotic (COLO 829 cells; [3]): 21.9 % of total cells
Late Apoptotic (COLO 829 cells; [3]): 40.8 % of total cells
Live (cell viability) (COLO 829 cells; [3]): 32.4 % of total cells
Necrotic (COLO 829 cells; [3]): 4.9 % of total cells
Early Apoptotic (COLO 829 cells; 1 uM, 48 hrs (Table 9)): 14.4 % of total cells
Late Apoptotic (COLO 829 cells; 1 uM, 48 hrs (Table 9)): 38.3 % of total cells
Live (cell viability) (COLO 829 cells; 1 uM, 48 hrs (Table 9)): 24.6 % of total cells
Necrotic (COLO 829 cells; 1 uM, 48 hrs (Table 9)): 22.7 % of total cells
Early Apoptotic (COLO 829 cells; [4]): 21.4 % of total cells
Late Apoptotic (COLO 829 cells; [4]): 53.7 % of total cells
Live (cell viability) (COLO 829 cells; [4]): 18.6 % of total cells
Necrotic (COLO 829 cells; [4]): 6.42 % of total cells
Early Apoptotic (22RV1 cells; 100 nM): 5.09 % of total cells
Late Apoptotic (22RV1 cells; 100 nM): 28.4 % of total cells
Live (cell viability) (22RV1 cells; 100 nM): 19.4 % of total cells
Necrotic (22RV1 cells; 100 nM): 47.1 % of total cells
Early Apoptotic (22RV1 cells; 1 uM): 6.22 % of total cells
Late Apoptotic (22RV1 cells; 1 uM): 19.1 % of total cells
Live (cell viability) (22RV1 cells; 1 uM): 28.1 % of total cells
Necrotic (22RV1 cells; 1 uM): 46.6 % of total cells

CC(=O)O[C@H]1C(=O)[C@@]2(C)[C@H]([C@H](OC(=O)c3ccccc3)[C@]3(O)C[C@H](OC(=O)[C@H](O)[C@@H](NC(=O)c4ccccc4)c4ccccc4)C(C)=C1C3(C)C)[C@]1(OC(C)=O)CO[C@@H]1C[C@@H]2O [Paclitaxel, paclitaxel]
Early Apoptotic (MDA-MB-468 cells; 100 nM, 48 hrs (Table 8)): 2.47 % of total cells
Late Apoptotic (MDA-MB-468 cells; 100 nM, 48 hrs (Table 8)): 5.54 % of total cells
Live (cell viability) (MDA-MB-468 cells; 100 nM, 48 hrs (Table 8)): 77.9 % of total cells
Necrotic (MDA-MB-468 cells; 100 nM, 48 hrs (Table 8)): 14.1 % of total cells
Early Apoptotic (MDA-MB-468 cells; [5]): 5.9 % of total cells
Late Apoptotic (MDA-MB-468 cells; [5]): 31.4 % of total cells
Live (cell viability) (MDA-MB-468 cells; [5]): 53.8 % of total cells
Necrotic (MDA-MB-468 cells; [5]): 8.89 % of total cells
Early Apoptotic (MDA-MB-468 cells; 1 uM, 48 hrs (Table 8)): 1.97 % of total cells
Late Apoptotic (MDA-MB-468 cells; 1 uM, 48 hrs (Table 8)): 9.18 % of total cells
Live (cell viability) (MDA-MB-468 cells; 1 uM, 48 hrs (Table 8)): 73.3 % of total cells
Necrotic (MDA-MB-468 cells; 1 uM, 48 hrs (Table 8)): 15.6 % of total cells
Early Apoptotic (MDA-MB-468 cells; [6]): 5.5 % of total cells
Late Apoptotic (MDA-MB-468 cells; [6]): 34.8 % of total cells
Live (cell viability) (MDA-MB-468 cells; [6]): 48.9 % of total cells
Necrotic (MDA-MB-468 cells; [6]): 10.8 % of total cells
pIC50 (MiaPaCa-1 (Pancreas)): 8.88
pIC50 (HCT116 (Colorectal); Homo sapiens, HCT-116, cell viability): 9.06
pIC50 (NCI-H1299 (Lung); Homo sapiens, NCI-H1299): 8.74
pIC50 (MDA-MB-468 (Breast); Homo sapiens): 8.72
pIC50 (NCI-H460 (Lung); Homo sapiens): 8.78
pIC50 (Capan-2 (Pancreas); Homo sapiens): 8.10
pIC50 (HT29 (Colorectal); Homo sapiens, HT-29, cell viability): 8.97
pIC50 (PC-3 (Prostate)): 9.05
